IC50 data for 19 compounds are collected here from ChEMBL document CHEMBL4622945, “Synthesis and antiproliferative activity of C- and N-terminal analogues of culicinin D” (Bioorg Med Chem Lett, 2020).

pIC50: −log10 of the molar value. Square brackets hold non-standard residues; d marks the D form. Peptide text beside a SMILES is read from it. * marks the point of attachment. NH((S)CH(Me)CH2NHC2H4OH) = C[C@@H](CNCCO)N*; Alaψ(CH2NMeCH2CH2OH) = C[C@@H](CN(C)CCO)N*; NH((S)CH(Me)CH2NMe2) = C[C@@H](CN(C)C)N*; NH((S)CH(CH3)CH2NHMe) = CNC[C@H](C)N*; Gly(octyl) = CCCCCCCC[C@H](N)C(=O)O; X5 = C[C@@H](N*)[C@@H](O)c1ccccc1; Hyp = O=C(O)[C@@H]1C[C@@H](O)CN1; Cha = N[C@@H](CC1CCCCC1)C(=O)O; Phe(ol) = N[C@H](CO)Cc1ccccc1; Decanoyl = CCCCCCCCCC(=O)*; Pip = O=C(O)[C@@H]1CCCCN1; X1 = C[C@@H](CN1CCNCC1)N*; X2 = C[C@@H](CN1CCOCC1)N*; Alaol = C[C@@H](CO)N*; NHCH2CH2NHMe = CNCCN*; Aib = CC(C)(N)C(=O)O; X3 = C[C@H](CNCCO)N*; Butyryl = CCCC(=O)*; NHCH2CH2OH = OCCN*; βAla = NCCC(=O)O; X4 = OCCNCCN*

What all share (type): functional, cell-based
For one experiment, the system named is SK-BR-3. As to the kind of experiment: Antiproliferative activity against human SKBR3 cells assessed as reduction in cell growth by SRB assay. (Sulforhodamine B stains cellular protein and so reports cell mass.)
For a further experiment, the system named is T47D. Put plainly: Antiproliferative activity against human T47D cells assessed as reduction in cell growth by SRB assay.
In a further experiment the test system is MDA-MB-468. As to the kind of experiment: Antiproliferative activity against human MDA-MB-468 cells assessed as reduction in cell growth by SRB assay.
A further experiment relates to NCI-H460. As to the kind of experiment: Antiproliferative activity against human NCI-H460 cells assessed as reduction in cell growth by SRB assay.

`CCCCCCCC[C@H](NC(=O)C(C)(C)NC(=O)C(C)(C)NC(=O)[C@H](CC1CCCCC1)NC(=O)[C@@H]1CCCN1C(C)=O)C(=O)N[C@@H](CC(C)C)C(=O)NC(C)(C)C(=O)N[C@@H](CC(C)C)C(=O)NCCC(=O)N[C@@H](C)CNCCO` (Ac-P[Cha][Aib][Aib][Gly(octyl)]L[Aib]L[βAla]-{NH((S)CH(Me)CH2NHC2H4OH)}): the negative logarithm of the IC50 (pIC50) – broadly, the IC50 on a negative log10 scale, so that one unit is a factor of ten – in the experiment on SK-BR-3 was 7.28; with T47D, 7.82; with MDA-MB-468 it was 7.89; with NCI-H460 it was 7.96.
Turning to `CCCCCCCC[C@H](NC(=O)C(C)(C)NC(=O)C(C)(C)NC(=O)[C@H](CC1CCCCC1)NC(=O)[C@H](C)NC(=O)CCC)C(=O)N[C@@H](CC(C)C)C(=O)NC(C)(C)C(=O)N[C@@H](CC(C)C)C(=O)NCCC(=O)N[C@@H](C)CNCCO` (Butyryl-A[Cha][Aib][Aib][Gly(octyl)]L[Aib]L[βAla]-{NH((S)CH(Me)CH2NHC2H4OH)}), the pIC50 in the experiment with SK-BR-3 is 8.00; in the experiment on T47D it was 8.30; with MDA-MB-468, 8.52; with NCI-H460, 8.70.
For the compound `CCCCCCCC[C@H](NC(=O)C(C)(C)NC(=O)C(C)(C)NC(=O)[C@H](CC1CCCCC1)NC(=O)[C@@H]1CCCN1C(=O)CCC)C(=O)N[C@@H](CC(C)C)C(=O)NC(C)(C)C(=O)N[C@@H](CC(C)C)C(=O)NCCC(=O)N[C@@H](C)CO` (Butyryl-P[Cha][Aib][Aib][Gly(octyl)]L[Aib]L[βAla]-Alaol), the negative logarithm of the IC50 (pIC50) with SK-BR-3 was 6.29; in the experiment with T47D, 6.31; in the experiment on MDA-MB-468, 6.47; in the experiment on NCI-H460, 6.89.
As to `CCCCCCCC[C@H](NC(=O)C(C)(C)NC(=O)C(C)(C)NC(=O)[C@H](CC1CCCCC1)NC(=O)[C@@H]1CCCN1C(=O)CCC)C(=O)N[C@@H](CC(C)C)C(=O)NC(C)(C)C(=O)N[C@@H](CC(C)C)C(=O)NCCC(=O)NCCNC` (Butyryl-P[Cha][Aib][Aib][Gly(octyl)]L[Aib]L[βAla]-NHCH2CH2NHMe), the negative-log IC50 (pIC50) in the experiment on SK-BR-3 was 7.57; with T47D it was 8.10; in the experiment with MDA-MB-468, 8.30; with NCI-H460 it was 8.00.
For the compound `CCCCCCCC[C@H](NC(=O)C(C)(C)NC(=O)C(C)(C)NC(=O)[C@H](CC1CCCCC1)NC(=O)[C@@H]1CCCN1C(=O)CCC)C(=O)N[C@@H](CC(C)C)C(=O)NC(C)(C)C(=O)N[C@@H](CC(C)C)C(=O)NCCC(=O)NCCO` (Butyryl-P[Cha][Aib][Aib][Gly(octyl)]L[Aib]L[βAla]-NHCH2CH2OH), the pIC50 is 6.29 with SK-BR-3, 6.12 in the experiment on T47D, 6.44 in the experiment with MDA-MB-468 and 6.65 in the experiment on NCI-H460.
On the same counts, the results for `CCCCCCCC[C@H](NC(=O)C(C)(C)NC(=O)C(C)(C)NC(=O)[C@H](CC1CCCCC1)NC(=O)[C@@H]1CCCN1C(=O)CCC)C(=O)N[C@@H](CC(C)C)C(=O)NC(C)(C)C(=O)N[C@@H](CC(C)C)C(=O)NCCC(=O)O` (Butyryl-P[Cha][Aib][Aib][Gly(octyl)]L[Aib]L[βAla]-OH) are < 6.00, < 6.00, < 6.00 and < 6.00.
For `CCCCCCCC[C@H](NC(=O)C(C)(C)NC(=O)C(C)(C)NC(=O)[C@H](CC1CCCCC1)NC(=O)[C@@H]1CCCN1C(=O)CCC)C(=O)N[C@@H](CC(C)C)C(=O)NC(C)(C)C(=O)N[C@@H](CC(C)C)C(=O)NCCC(=O)N[C@@H](C)CN1CCNCC1` (Butyryl-P[Cha][Aib][Aib][Gly(octyl)]L[Aib]L[βAla]-X1), the negative logarithm of the IC50 (pIC50) with SK-BR-3, in the experiment on T47D, in the experiment on MDA-MB-468 and in the experiment on NCI-H460 was < 6.00 throughout.
With `CCCCCCCC[C@H](NC(=O)C(C)(C)NC(=O)C(C)(C)NC(=O)[C@H](CC1CCCCC1)NC(=O)[C@@H]1CCCN1C(=O)CCC)C(=O)N[C@@H](CC(C)C)C(=O)NC(C)(C)C(=O)N[C@@H](CC(C)C)C(=O)NCCC(=O)N[C@@H](C)CN1CCOCC1` (Butyryl-P[Cha][Aib][Aib][Gly(octyl)]L[Aib]L[βAla]-X2), the pIC50 is 7.00 in the experiment with SK-BR-3, 7.44 in the experiment with T47D, 7.23 in the experiment on MDA-MB-468 and 7.47 in the experiment with NCI-H460.
With `CCCCCCCC[C@H](NC(=O)C(C)(C)NC(=O)C(C)(C)NC(=O)[C@H](CC1CCCCC1)NC(=O)[C@@H]1CCCN1C(=O)CCC)C(=O)N[C@@H](CC(C)C)C(=O)NC(C)(C)C(=O)N[C@@H](CC(C)C)C(=O)NCCC(=O)N[C@H](C)CNCCO` (Butyryl-P[Cha][Aib][Aib][Gly(octyl)]L[Aib]L[βAla]-X3), the pIC50 in the experiment on SK-BR-3 was 6.69; in the experiment on T47D, 7.51; with MDA-MB-468 it was 7.51; in the experiment with NCI-H460, 7.30.
Turning to `CCCCCCCC[C@H](NC(=O)C(C)(C)NC(=O)C(C)(C)NC(=O)[C@H](CC1CCCCC1)NC(=O)[C@@H]1CCCN1C(=O)CCC)C(=O)N[C@@H](CC(C)C)C(=O)NC(C)(C)C(=O)N[C@@H](CC(C)C)C(=O)NCCC(=O)NCCNCCO` (Butyryl-P[Cha][Aib][Aib][Gly(octyl)]L[Aib]L[βAla]-X4), the pIC50 with SK-BR-3 is 7.17; with T47D, 7.82; in the experiment on MDA-MB-468, 8.00; in the experiment on NCI-H460 it was 7.77.
In the case of `CCCCCCCC[C@H](NC(=O)C(C)(C)NC(=O)C(C)(C)NC(=O)[C@H](CC1CCCCC1)NC(=O)[C@@H]1CCCN1C(=O)CCC)C(=O)N[C@@H](CC(C)C)C(=O)NC(C)(C)C(=O)N[C@@H](CC(C)C)C(=O)NCCC(=O)N[C@H](C)[C@@H](O)c1ccccc1` (Butyryl-P[Cha][Aib][Aib][Gly(octyl)]L[Aib]L[βAla]-X5), the pIC50 in the experiment with SK-BR-3 is 6.46; in the experiment on T47D it was 6.33; with MDA-MB-468, 6.62; in the experiment on NCI-H460, 7.05.
In the case of `CCCCCCCC[C@H](NC(=O)C(C)(C)NC(=O)C(C)(C)NC(=O)[C@H](CC1CCCCC1)NC(=O)[C@@H]1CCCN1C(=O)CCC)C(=O)N[C@@H](CC(C)C)C(=O)NC(C)(C)C(=O)N[C@@H](CC(C)C)C(=O)NCCC(=O)N[C@@H](C)CN(C)CCO` (Butyryl-P[Cha][Aib][Aib][Gly(octyl)]L[Aib]L[βAla]-{Alaψ(CH2NMeCH2CH2OH)}), the pIC50 with SK-BR-3 is 8.10; in the experiment on T47D, 8.52; in the experiment with MDA-MB-468, 8.70; in the experiment on NCI-H460, 8.70.
With `CCCCCCCC[C@H](NC(=O)C(C)(C)NC(=O)C(C)(C)NC(=O)[C@H](CC1CCCCC1)NC(=O)[C@@H]1CCCN1C(=O)CCC)C(=O)N[C@@H](CC(C)C)C(=O)NC(C)(C)C(=O)N[C@@H](CC(C)C)C(=O)NCCC(=O)N[C@@H](C)CNC` (Butyryl-P[Cha][Aib][Aib][Gly(octyl)]L[Aib]L[βAla]-{NH((S)CH(CH3)CH2NHMe)}), the negative logarithm of the IC50 (pIC50) with SK-BR-3 is 7.89; in the experiment with T47D it was 8.30; in the experiment with MDA-MB-468, 8.52; with NCI-H460, 8.52.
With `CCCCCCCC[C@H](NC(=O)C(C)(C)NC(=O)C(C)(C)NC(=O)[C@H](CC1CCCCC1)NC(=O)[C@@H]1CCCN1C(=O)CCC)C(=O)N[C@@H](CC(C)C)C(=O)NC(C)(C)C(=O)N[C@@H](CC(C)C)C(=O)NCCC(=O)N[C@@H](C)CN(C)C` (Butyryl-P[Cha][Aib][Aib][Gly(octyl)]L[Aib]L[βAla]-{NH((S)CH(Me)CH2NMe2)}), the pIC50 in the experiment on SK-BR-3 is 8.00; with T47D, 8.22; in the experiment with MDA-MB-468, 8.40; with NCI-H460, 8.40.
As to `CCCCCCCC[C@H](NC(=O)C(C)(C)NC(=O)C(C)(C)NC(=O)[C@H](CC1CCCCC1)NC(=O)[C@@H]1CCCN1C(=O)CCC)C(=O)N[C@@H](CC(C)C)C(=O)NC(C)(C)C(=O)N[C@@H](CC(C)C)C(=O)NCCC(=O)N[C@H](CO)Cc1ccccc1` (Butyryl-P[Cha][Aib][Aib][Gly(octyl)]L[Aib]L[βAla][Phe(ol)]), the pIC50 in the experiment on SK-BR-3 was 6.75; with T47D, 6.61; in the experiment with MDA-MB-468, 6.84; with NCI-H460, 7.35.
In the same order, the values of `CCCCCCCC[C@H](NC(=O)C(C)(C)NC(=O)C(C)(C)NC(=O)[C@H](CC1CCCCC1)NC(=O)[C@@H]1C[C@@H](O)CN1C(=O)CCC)C(=O)N[C@@H](CC(C)C)C(=O)NC(C)(C)C(=O)N[C@@H](CC(C)C)C(=O)NCCC(=O)N[C@@H](C)CNCCO` (Butyryl-[Hyp][Cha][Aib][Aib][Gly(octyl)]L[Aib]L[βAla]-{NH((S)CH(Me)CH2NHC2H4OH)}) are 6.91, 7.42, 7.43 and 7.40.
Consider `CCCCCCCC[C@H](NC(=O)C(C)(C)NC(=O)C(C)(C)NC(=O)[C@H](CC1CCCCC1)NC(=O)[C@@H]1CCCCN1C(=O)CCC)C(=O)N[C@@H](CC(C)C)C(=O)NC(C)(C)C(=O)N[C@@H](CC(C)C)C(=O)NCCC(=O)N[C@@H](C)CNCCO` (Butyryl-[Pip][Cha][Aib][Aib][Gly(octyl)]L[Aib]L[βAla]-{NH((S)CH(Me)CH2NHC2H4OH)}), for which the negative logarithm of the IC50 (pIC50) in the experiment with SK-BR-3 was 7.47; in the experiment with T47D it was 7.96; in the experiment on MDA-MB-468, 7.96; in the experiment with NCI-H460 it was 8.05.
Take `CCCCCCCCCC(=O)N1CCC[C@H]1C(=O)N[C@@H](CC1CCCCC1)C(=O)NC(C)(C)C(=O)NC(C)(C)C(=O)N[C@@H](CCCCCCCC)C(=O)N[C@@H](CC(C)C)C(=O)NC(C)(C)C(=O)N[C@@H](CC(C)C)C(=O)NCCC(=O)N[C@@H](C)CNCCO` (Decanoyl-P[Cha][Aib][Aib][Gly(octyl)]L[Aib]L[βAla]-{NH((S)CH(Me)CH2NHC2H4OH)}): the pIC50 with SK-BR-3 was 7.70; in the experiment with T47D, 7.89; in the experiment with MDA-MB-468, 8.22; in the experiment on NCI-H460 it was 8.05.
On the same counts, the results for `CCCCCCCC[C@H](NC(=O)C(C)(C)NC(=O)C(C)(C)NC(=O)[C@H](CC1CCCCC1)NC(=O)[C@@H]1CCCN1)C(=O)N[C@@H](CC(C)C)C(=O)NC(C)(C)C(=O)N[C@@H](CC(C)C)C(=O)NCCC(=O)N[C@@H](C)CNCCO` (H-P[Cha][Aib][Aib][Gly(octyl)]L[Aib]L[βAla]-{NH((S)CH(Me)CH2NHC2H4OH)}) are 7.24, 7.89, 8.00 and 8.05.
